Test results from publication PMC9490236, “Accurate de novo design of membrane-traversing macrocycles” (Cell, 2022).
Where a SMILES comes first, the peptide text is derived from it. [ ]: non-standard residue; d: D form. ξ: configuration not given here. NMeI = CC[C@H](C)[C@H](NC)C(=O)O; dIle(3ξ) = CCC(C)[C@@H](N)C(=O)O; dNMeF = CN[C@H](Cc1ccccc1)C(=O)O; NMeL = CN[C@@H](CC(C)C)C(=O)O; dNMeL = CN[C@H](CC(C)C)C(=O)O; NMeA = CN[C@@H](C)C(=O)O; dNMeA = CN[C@H](C)C(=O)O; Aib = CC(C)(N)C(=O)O

Experiments:
[1] = in vitro; conditions: PAMPA, PAMPA_Papp_Avg
[2] = PAMPA
[3] = test system: Caco-2 cells; assay: Caco-2 permeability assay (apical to basolateral); format: in vitro ADME, human; conditions: Caco-2
Description: (§1) Human colon adenocarcinoma-derived Caco-2 cell line was used as a model system to investigate the intestinal epithelial permeability of our designs. Caco-2 cells were propagated in T125 flasks (Corning, Merck) using Dulbecco’s modified Eagle medium supplemented with 10% (v/v) fetal bovine serum, 1% (v/v) nonessential amino acids, and 1% (v/v) penicillin-streptomycin (Gibco, Thermo Fisher Scientific) at 37°C in an atmosphere of 5% CO2. Cells were subcultured when they reached 80% confluence.
(§2) The permeability of designed peptides was evaluated using an accelerated 6-day Caco-2 permeability assay as described previously ([Sevin et al., 2013]). In brief, cells were seeded into the 12-well Transwell plates with 0.4 μm polyester membrane inserts (Corning, Merck) to give 4.0 × 10^5 cells/well. The complete assay medium contained Dulbecco’s modified Eagle medium supplemented with 10% (v/v) fetal bovine serum, 1% (v/v) nonessential amino acids, and 0.4 μg/mL puromycin. The medium in plates was renewed every second day. The inserts received 0.75 mL of assay medium in the upper compartment (apical chamber) and 1.5 mL in the bottom compartment (basolateral chamber) individually. After 6-day incubation or until the cells formed monolayers, the medium in the apical and basolateral chamber was replaced with peptide solutions at 50 μM or Hanks' Balanced Salt Solution (HBSS), separately. The plates were incubated for 90 min at 37°C on an orbital shaker (60 rpm). The peptide concentration of solutions in the apical and basolateral compartments was subsequently quantified using LC-MS (Qstar Elite, AB Sciex Australia) to evaluate the transmembrane flux of peptides in the apical-to-basolateral direction. Membrane integrity of the Caco-2 cell monolayer was validated using trans-epithelial electrical resistance (TEER) measurements before and after the assays. Atenolol and quinidine were included as negative and positive controls in all assays.

[4] = Caco-2 permeability assay (apical to basolateral); format: in vitro ADME, human; conditions: for Papp A→B: Caco-2, Caco_Papp_Average; for Papp at 90 min, 50 µM: human, Caco-2
Description: as §1, §2

| SMILES | Papp [1] [×10⁻⁶ cm/s] | PAMPA_R1 [2] | PAMPA_R3 [2] | Caco_R1 [3] | Caco_R3 [3] | Papp A→B [4] [×10⁻⁶ cm/s] | Papp at 90 min, 50 µM [4] [×10⁻⁶ cm/s] |
| --- | --- | --- | --- | --- | --- | --- | --- |
| CC(C)C[C@@H]1NC(=O)[C@H](Cc2ccccc2)NC(=O)[C@@H](CC(C)C)NC(=O)[C@H]2CCCN2C(=O)[C@H](C(C)C)NC(=O)[C@@H](CC(C)C)NC(=O)[C@H]2CCCN2C(=O)[C@@H]2CCCN2C1=O [Design D8.5.p2, PHE LEU PRO DPRO DLEU VAL DPRO DLEU] (cyclo(FLP[dP][dL]V[dP][dL])) | 5.8 | 5.46E-06 | 5.67E-06 | 17.839 | 20.36 | 21.4 |  |
| CC(C)C[C@@H]1NC(=O)[C@H]2CCCN2C(=O)[C@@H]2CCCN2C(=O)[C@H](CC(C)C)NC(=O)[C@@H](CC(C)C)NC(=O)[C@@H](C)N(C)C(=O)[C@@H](C)N(C)C(=O)[C@@H](C(C)C)NC1=O [Design D8.6, LEU PRO DPRO LEU DVAL *DALA *DALA DLEU] (cyclo(LP[dP]L[dV][dNMeA][dNMeA][dL])) | 3.35 | 3.54E-06 | 3.44E-06 | 0.86 | 0.45 | 0.737 |  |
| CC[C@@H](C)[C@H]1NC(=O)[C@@H](CC(C)C)N(C)C(=O)[C@@H]2CCCN2C(=O)[C@@H]([C@H](C)CC)NC(=O)[C@@H](CC(C)C)NC(=O)[C@@H](CC(C)C)N(C)C(=O)[C@@H]2CCCN2C(=O)[C@@H](C(C)C)NC1=O [Design D8.8, PRO *DLEU DLEU DILE PRO *DLEU DILE DVAL] (cyclo(P[dNMeL][dI][dV]P[dNMeL][dL][dI])) | 5.9 | 9.54E-06 | 3.47E-06 | 20.91 | 24.11 | 23 |  |
| CC(C)C[C@@H]1C(=O)N[C@H](CC(C)C)C(=O)N2CCC[C@@H]2C(=O)N2CCC[C@@H]2C(=O)N(C)[C@@H](C)C(=O)N[C@H](Cc2ccccc2)C(=O)N[C@@H](C)C(=O)N(C)[C@@H](CC(C)C)C(=O)N1C [Design D8.10, DPRO DPRO *ALA DPHE ALA *LEU *DLEU DLEU] (cyclo(A[NMeL][dNMeL][dL][dP][dP][NMeA][dF])) | 1.23 | 8.77E-07 | 1.78E-06 | 3.8 | 3.36 | 3.91 |  |
| CC[C@H](C)[C@@H]1NC(=O)[C@H]2CCCN2C(=O)[C@@H]2CCCN2C(=O)[C@@H](C(C)C)NC(=O)[C@@H](C)N(C)C(=O)[C@H](C)N(C)C(=O)[C@@H](CC(C)C)N(C)C(=O)[C@@H](C(C)C)NC1=O [Design D8.26, DVAL *DLEU *ALA *DALA DVAL PRO DPRO ILE] (cyclo(I[dV][dNMeL][NMeA][dNMeA][dV]P[dP])) | 0.255 | 1.58E-07 | 2.69E-07 | 0.79 | 0.94 | 0.647 |  |
| CC(C)C[C@@H]1NC(=O)[C@H](CC(C)C)N(C)C(=O)[C@H]2CCCN2C(=O)[C@@H](C)NC(=O)[C@@H](C)N(C)C(=O)[C@@H](C(C)C)NC(=O)[C@@H](CC(C)C)N(C)C(=O)[C@@H]2CCCN2C1=O [Design D8.30, DALA DPRO *LEU LEU PRO *DLEU DVAL *DALA] (cyclo(LP[dNMeL][dV][dNMeA][dA][dP][NMeL])) | 4.32 | 4.61E-06 | 4.25E-06 | 4.11 | 2.89 | 3.97 |  |
| CC(C)C[C@@H]1C(=O)N[C@H](CC(C)C)C(=O)N2CCC[C@@H]2C(=O)N2CCC[C@@H]2C(=O)N(C)[C@@H](CC(C)C)C(=O)N[C@H](CC(C)C)C(=O)N2CCC[C@@H]2C(=O)N2CCC[C@H]2C(=O)N1C [Design D8.32, DPRO DPRO *LEU DLEU DPRO PRO *DLEU DLEU] (cyclo([dNMeL][dL][dP][dP][NMeL][dL][dP]P)) | 5.37 | 5.82E-06 | 5.16E-06 | 2.78 | 2.54 | 2.73 |  |
| CC[C@@H](C)[C@H]1NC(=O)[C@H]2CCCN2C(=O)[C@@H]2CCCN2C(=O)[C@@H]([C@H](C)CC)NC(=O)[C@@H](Cc2ccccc2)NC(=O)[C@@H](Cc2ccccc2)N(C)C(=O)[C@@H]2CCCN2C(=O)[C@@H](C(C)C)NC1=O [Design D8.33, DPHE DILE PRO DPRO DILE DVAL PRO *DPHE] (cyclo(P[dNMeF][dF][dI]P[dP][dI][dV])) | 6.72 | 5.91E-06 | 1.01E-05 | 18.4 | 16.82 | 19.1 | > 10 |
| CC[C@H](C)[C@@H]1NC(=O)[C@@H](CC(C)C)N(C)C(=O)[C@@H]2CCCN2C(=O)[C@H](C(C)C)NC(=O)C(C)(C)NC(=O)[C@H](CC(C)C)NC(=O)C(C)(C)NC(=O)[C@@H]2CCCN2C(=O)[C@H]2CCCN2C1=O [Design D9.1, DPRO PRO AIB LEU AIB VAL PRO *DLEU ILE] (cyclo([Aib]L[Aib]VP[dNMeL]I[dP]P)) | 1.59 | 1.43E-06 | 1.63E-06 | 0.42 | 2.09 | 0.897 |  |
| CC[C@@H](C)[C@H]1NC(=O)[C@H](CC(C)C)NC(=O)[C@@H](CC(C)C)NC(=O)[C@H](C(C)C)NC(=O)[C@@H](Cc2ccccc2)N(C)C(=O)[C@@H]2CCCN2C(=O)[C@@H](CC(C)C)NC(=O)[C@H](CC(C)C)N(C)C(=O)[C@H]2CCCN2C1=O [Design D9.3, LEU DILE DPRO *LEU DLEU PRO *DPHE VAL DLEU] (cyclo(L[dI][dP][NMeL][dL]P[dNMeF]V[dL])) | 2.33 | 3.06E-06 | 2.01E-06 | 2.82 | 3.81 | 3.53 |  |
| CCC(C)[C@H]1NC(=O)[C@H](CC(C)C)NC(=O)[C@@H](C)N(C)C(=O)[C@@H]2CCCN2C(=O)[C@H](C)NC(=O)[C@@H](CC(C)C)NC(=O)[C@H]2CCCN2C(=O)[C@H](C(C)C)NC(=O)[C@@H](CC(C)C)N(C)C1=O (stereo partly drawn) [Design D9.30, DPRO DLEU ALA PRO *DALA LEU DILE *DLEU VAL] (cyclo(AP[dNMeA]L[dIle(3ξ)][dNMeL]V[dP][dL])) | 1.6 | 1.58E-06 | 1.58E-06 | 1.9 | 2.72 | 2.32 |  |
| CC[C@@H](C)[C@H]1NC(=O)[C@H](CC(C)C)N(C)C(=O)[C@H]2CCCN2C(=O)[C@H](CC(C)C)NC(=O)[C@H](Cc2ccccc2)N(C)C(=O)[C@H](CC(C)C)N(C)C(=O)[C@@H](C(C)C)NC(=O)[C@H](C)NC(=O)[C@H]2CCCN2C(=O)[C@@H]2CCCN2C1=O [Design D10.17.p2, *LEU *PHE LEU DPRO *LEU DILE PRO DPRO ALA DVAL] | 2.69 | 3.37E-06 | 2.91E-06 | 12.57 | 7.84 | 8.7 |  |
| CC[C@H](C)[C@H]1C(=O)N[C@H](C)C(=O)N[C@@H](CC(C)C)C(=O)N[C@@H](C(C)C)C(=O)N2CCC[C@@H]2C(=O)N(C)[C@@H](CC(C)C)C(=O)N[C@@H](C(C)C)C(=O)N2CCC[C@H]2C(=O)N(C)[C@H](CC(C)C)C(=O)N[C@@H](C(C)C)C(=O)N1C [Design D10.19, DALA LEU VAL DPRO *LEU VAL PRO *DLEU VAL *ILE] (cyclo(LV[dP][NMeL]VP[dNMeL]V[NMeI][dA])) | 6.36 | 7.24E-06 | 7.38E-06 | 15.38 | 17.24 | 17.1 | > 10 |
